Laboratory results published in BindingDB's records for doi:10.7270/Q2NP26K8 (n/a, 1992).
pIC50: −log10 of the molar value.

Legend:
Assay in all cases: Inhibition of guinea pig heart Phosphodiesterase 3
PDE3 (Cavia porcellus) [1] = target: PDE3 (Cavia porcellus)
PDE3 (Cavia porcellus) [2] = target: PDE3 (Cavia porcellus); remark: listed apart in the source
PDE3 (Cavia porcellus) [3] = target: PDE3 (Cavia porcellus); remark: listed apart in the source

Compound: COc1ccc(C(=O)N2CCCc3cc(C4=NNC(=O)S[C@@H]4C)ccc32)cc1OC
- pIC50 (PDE3 (Cavia porcellus) [1]): 7.22
- pIC50 (PDE3 (Cavia porcellus) [2]): 7.22
- pIC50 (PDE3 (Cavia porcellus) [3]): 7.30
